The record followed here is ChEMBL document CHEMBL6078620, “Design and synthesis of visible light-activatable photocaged peroxides for optical control of ROS-mediated cellular signaling” (Bioorg Med Chem, 2024).

Active and inactive are the calls of the source. The calls are words filed in the database; no cut-off is given here.

Series [1] can be described thus: Photophysical property of the compound assessed as fluorescence quantum yield by UV-Visible spectrophotometric analysis. Format: physicochemical.
Series [2] is described as follows: Chemical stability of compound in PBS buffer at pH 7.4 assessed as parent compound remaining measured after 60 mins by UHPLC analysis. Format: physicochemical. The following applies: read-out: Stability.
Series [3] relates to HeLa. The experiment in a line: Cytotoxicity against human HeLa cells assessed as TBHP release by measuring fluorescence intensity at 50 uM incubated for 5 mins in presence of light irradiation at 375 nm by confocal fluorescence microscopic analysis. Format: functional, cell-based.
Series [4] deals with HeLa. The experiment in a line: Cytotoxicity against human HeLa cells at 25 uM by CCK-8 assay. Format: functional, cell-based.
Series [5] has as its system HeLa. Kind of series: Cytotoxicity against human HeLa cells assessed as reduction in cell survival upto 50 uM by CCK-8 assay. Format: functional. The following applies: up to 50 µM.
Series [6] has as its system HeLa. Kind of series: Cytotoxicity against human HeLa cells assessed as TBHP release by measuring fluorescence intensity at 10 uM incubated for 5 mins in presence of light irradiation at 375 to 455 nm by confocal fluorescence microscopic analysis. Format: functional, cell-based.
Series [7] deals with HeLa. The experiment in a line: Cytotoxicity against human HeLa cells assessed as reduction in cell survival upto 50 uM in presence of light irradiation by CCK-8 assay. Format: functional. The following applies: up to 50 µM. (Formazan colour is commonly taken as a measure of viable cells.)

In the case of `CC(C)(C)OOC(=O)OCc1cc(=O)oc2c3c(c(Br)cc12)NCC3`, the Activity in series [1] amounted to 0.14. Besides, in series [2], the remaining at 1 h worked out at 68%.

Regarding `CC(C)(C)OOC(=O)OCc1cc(=O)oc2cc(O)c(Br)cc12`, the result in the series with HeLa [3] was Active. Also, the Activity in series [1] amounted to 0.13. Further, the remaining at 1 h in series [2] stood at 45%.

On to `CC(=O)OC(=O)OCc1cc(=O)oc2cc(O)c(Br)cc12`, for which the Activity in series [1] is given as 0.04.

Regarding `CC(C)(C)OOC(=O)OCc1cc(=O)oc2c3c(c(Br)cc12)NCCC3`, the outcome with HeLa [4] and in the series with HeLa [6] was Active. For the same compound, the Activity in the series with HeLa [5] came to 63%; in series [1] it was 0.082; in the series on HeLa [7], 46%. For the same compound, in series [2], the remaining at 1 h was 50%.
